# Source: patent US20200268768A1, “CENICRIVIROC COMBINATION THERAPY FOR THE TREATMENT OF FIBROSIS” (Tobira Therapeutics, Inc., priority 2015, published 2020)
# “And” between values parts separate entries of the source, which are not always exact repeats. Identical values can stand only once. “Also recorded” adds a separate entry of the source.
# Columns and labels:
# HIV-1 infected subjects = experiment: Study 202 safety and tolerability; assay type: in vivo, human; conditions: 115 subjects, CVC 100 mg and 200 mg for up to 48 weeks
# Mouse toxicity studies = assay type: in vivo; conditions: CVC doses up to 2000 mg/kg/day; no surgical procedures
# [1] = system: STAM mouse model of Non-alcoholic Steatohepatitis; experiment: STAM mouse model of NASH, anti-NASH/fibrosis effects at week 9; assay type: in vivo, mice; parameters: key to Hepatocyte ballooning score 0, number of mice / Hepatocyte ballooning score 1, number of mice: 0: None; 1: Few balloon cells; 2: Many cells/prominent ballooning; TNF-a mRNA expression level / MCP-1 mRNA expression level / Collagen Type 1 mRNA expression level / TIMP-1 mRNA expression level: scale not given here; conditions: for Collagen Type 1 mRNA expression level / MCP-1 mRNA expression level / TIMP-1 mRNA expression level / TNF-a mRNA expression level: liver, quantitative RT-PCR; for Collagen Type 1 mRNA expression level / MCP-1 mRNA expression level / TIMP-1 mRNA expression level / TNF-a mRNA expression level / Body weight / F4/80-positive area (inflammation area) / F4/80 and CD206-positive cells / F4/80 and CDE 16/32-positive cells / Liver hydroxyproline / Liver triglyceride / Liver weight / Liver-to-body weight ratio / M1/M2 ratio / NAFLD Activity Score (NAS) / Oil red-positive area (fat deposition area) / Plasma ALT / Plasma MCP-1 / TUNEL-positive cells / Whole blood glucose / Sirius red-positive area (fibrosis area) / Modified Sirius red-positive rea: mean ± SD; for Sirius red-positive area (fibrosis area): perivascular space included; for Modified Sirius red-positive rea: perivascular space subtracted
# Protocol: NASH was induced in male mice by a single injection of 200 μg streptozotocin 2 days after birth (causing impaired glucose control), followed by a high fat diet from 4 weeks of age. […] Animals were sacrificed at 9 weeks of age, and biochemical, gene expression, and histologic evaluations of the liver were conducted. This in vivo efficacy study was performed to examine the effects of Cenicriviroc in the STAM™ mouse model of Non-alcoholic Steatohepatitis. […] [table]
# [2] = CVC-high 100 mg/kg/day oral, listed as Cenicriviroc
# [3] = CVC-low 20 mg/kg/day oral, listed as Cenicriviroc
structure (smiles),measurement,setting,value
"CCCCOCCOc1ccc(-c2ccc3c(c2)C=C(C(=O)Nc2ccc([S@@+]([O-])Cc4cncn4CCC)cc2)CCCN3CC(C)C)cc1 [CVC, (S)-8-[4-(2-Butoxyethoxy)phenyl]-1-isobutyl-N-(4-{[(1-propyl-1H-imidazol-5-yl)methyl]sulfinyl}phenyl)-1,2,3,4-tetrahydro-1-benzazocine-5-carboxamide]",Tolerability,HIV-1 infected subjects,generally well tolerated; also recorded: effective and well tolerated
same,Tolerability,Mouse toxicity studies,well tolerated
same,Decrease of collagen type 1 mRNA in whole liver lysates,"[1]; CVC 20 and 100 mg/kg/day, real-time RT-PCR",27-37%
same,Collagen Type 1 mRNA expression level,[1]; CVC-high 100 mg/kg/day oral,0.73±0.04
same,MCP-1 mRNA expression level,[1]; CVC-high 100 mg/kg/day oral,1.00±0.53
same,TIMP-1 mRNA expression level,[1]; CVC-high 100 mg/kg/day oral,0.80±0.20
same,TNF-a mRNA expression level,[1]; CVC-high 100 mg/kg/day oral,1.09±0.23
same,Collagen Type 1 mRNA expression level,[1]; [2],0.73 ± 0.04
same,MCP-1 mRNA expression level,[1]; [2],1.00 ± 0.53
same,TIMP-1 mRNA expression level,[1]; [2],0.80 ± 0.20
same,TNF-a mRNA expression level,[1]; [2],1.09 ± 0.23
same,Body weight,[1]; CVC-high 100 mg/kg/day oral,18.7 ± 0.9 g
same,F4/80-positive area (inflammation area),[1]; CVC-high 100 mg/kg/day oral,4.96±0.60%
same,F4/80 and CD206-positive cells,[1]; CVC-high 100 mg/kg/day oral,33.1±3.0%
same,F4/80 and CDE 16/32-positive cells,[1]; CVC-high 100 mg/kg/day oral,41.5±8.2%
same,Liver hydroxyproline,[1]; CVC-high 100 mg/kg/day oral,0.62±0.09 ug/mg total protein
same,Liver triglyceride,[1]; CVC-high 100 mg/kg/day oral,51.7±14.1 mg/g liver
same,Liver weight,[1]; CVC-high 100 mg/kg/day oral,1307 ± 119 mg
same,Liver-to-body weight ratio,[1]; CVC-high 100 mg/kg/day oral,7.0±0.8%
same,M1/M2 ratio,[1]; CVC-high 100 mg/kg/day oral,125.1±21.9%
same,NAFLD Activity Score (NAS),[1]; CVC-high 100 mg/kg/day oral,3.7±0.8
same,Oil red-positive area (fat deposition area),[1]; CVC-high 100 mg/kg/day oral,7.23±3.59%
same,Plasma ALT,[1]; CVC-high 100 mg/kg/day oral,51±13 U/L and 52±13 U/L
same,Plasma MCP-1,[1]; CVC-high 100 mg/kg/day oral,91 ± 14 pg/mL
same,TUNEL-positive cells,[1]; CVC-high 100 mg/kg/day oral,39.0±5.3%
same,Whole blood glucose,[1]; CVC-high 100 mg/kg/day oral,585 ± 91 mg/dL
same,Body weight,[1]; [2],18.7 ± 0.9 g
same,F4/80-positive area (inflammation area),[1]; [2],4.96 ± 0.60%
same,F4/80 and CD206-positive cells,[1]; [2],33.1 ± 3.0%
same,F4/80 and CDE 16/32-positive cells,[1]; [2],41.5 ± 8.2%
same,Liver hydroxyproline,[1]; [2],0.62 ± 0.09 ug/mg total protein
same,Liver triglyceride,[1]; [2],51.7 ± 14.1 mg/g liver
same,Liver weight,[1]; [2],1307 ± 119 mg
same,Liver-to-body weight ratio,[1]; [2],7.0 ± 0.8%
same,M1/M2 ratio,[1]; [2],125.1 ± 21.9%
same,NAFLD Activity Score (NAS),[1]; [2],3.7 ± 0.8
same,Oil red-positive area (fat deposition area),[1]; [2],7.23 ± 3.59%
same,Plasma ALT,[1]; [2],52 ± 13 U/L
same,Plasma MCP-1,[1]; [2],91 ± 14 pg/mL
same,TUNEL-positive cells,[1]; [2],39.0 ± 5.3%
same,Whole blood glucose,[1]; [2],585 ± 91 mg/dL
same,Sirius red-positive area (fibrosis area),[1]; [2],0.64 ± 0.19%
same,Modified Sirius red-positive rea,[1]; [2],0.20 ± 0.06%
same,"Modified positive area, per mouse","[1]; CVC-high 100 mg/kg/day, Sirius red, individual mice 301-306, listed as Cenicriviroc",0.18% and 0.20% and 0.12% and 0.26% and 0.17% and 0.27%
same,"Modified positive area, per photo","[1]; CVC-high 100 mg/kg/day, Sirius red, individual mice 301-306, photos 1-5, listed as Cenicriviroc",0.26% and 0.06% and 0.10% and 0.41% and 0.09% (2×) and 0.23% (2×) and 0.17% (2×) and 0.28% (2×) and 0.22% (2×) and 0.08% (3×) and 0.05% and 0.32% and 0.07% (3×) and 0.16% and 0.20% (2×) and 0.68% and 0.27% and 0.12% and 0.11% and 0.67%
same,"Hepatocyte ballooning score 0, number of mice","[1]; CVC-high 100 mg/kg/day, n=6",1
same,"Hepatocyte ballooning score 1, number of mice","[1]; CVC-high 100 mg/kg/day, n=6",2
same,"Hepatocyte ballooning score 2, number of mice","[1]; CVC-high 100 mg/kg/day, n=6",3
same,"Lobular inflammation score 1, number of mice","[1]; CVC-high 100 mg/kg/day, n=6",3 (>4 foci/200x)
same,"Lobular inflammation score 2, number of mice","[1]; CVC-high 100 mg/kg/day, n=6",3 (>4 foci/200x)
same,"Steatosis score 0, number of mice","[1]; CVC-high 100 mg/kg/day, n=6",1 (5-33%)
same,"Steatosis score 1, number of mice","[1]; CVC-high 100 mg/kg/day, n=6",5
same,Collagen Type 1 mRNA expression level,[1]; CVC-low 20 mg/kg/day oral,0.63±0.10
same,MCP-1 mRNA expression level,[1]; CVC-low 20 mg/kg/day oral,1.05±0.50
same,TIMP-1 mRNA expression level,[1]; CVC-low 20 mg/kg/day oral,0.75±0.32
same,TNF-a mRNA expression level,[1]; CVC-low 20 mg/kg/day oral,1.16±0.39
same,Collagen Type 1 mRNA expression level,[1]; [3],0.63 ± 0.10
same,MCP-1 mRNA expression level,[1]; [3],1.05 ± 0.50
same,TIMP-1 mRNA expression level,[1]; [3],0.75 ± 0.32
same,TNF-a mRNA expression level,[1]; [3],1.16 ± 0.39
same,Body weight,[1]; CVC-low 20 mg/kg/day oral,19.5 ± 2.0 g
same,F4/80-positive area (inflammation area),[1]; CVC-low 20 mg/kg/day oral,4.77±1.02%
same,F4/80 and CD206-positive cells,[1]; CVC-low 20 mg/kg/day oral,34.7±6.3%
same,F4/80 and CDE 16/32-positive cells,[1]; CVC-low 20 mg/kg/day oral,38.7±7.6%
same,Liver hydroxyproline,[1]; CVC-low 20 mg/kg/day oral,0.63±0.05 ug/mg total protein
same,Liver triglyceride,[1]; CVC-low 20 mg/kg/day oral,48.5±16.1 mg/g liver
same,Liver weight,[1]; CVC-low 20 mg/kg/day oral,1334 ± 99 mg
same,Liver-to-body weight ratio,[1]; CVC-low 20 mg/kg/day oral,6.9±1.0%
same,M1/M2 ratio,[1]; CVC-low 20 mg/kg/day oral,112.3±17.0%
same,NAFLD Activity Score (NAS),[1]; CVC-low 20 mg/kg/day oral,4.0±0.6
same,Oil red-positive area (fat deposition area),[1]; CVC-low 20 mg/kg/day oral,6.51±3.88%
same,Plasma ALT,[1]; CVC-low 20 mg/kg/day oral,58±12 U/L
same,Plasma MCP-1,[1]; CVC-low 20 mg/kg/day oral,68 ± 16 pg/mL
same,TUNEL-positive cells,[1]; CVC-low 20 mg/kg/day oral,43.3±2.9%
same,Whole blood glucose,[1]; CVC-low 20 mg/kg/day oral,585 ± 91 mg/dL
same,Body weight,[1]; [3],19.5 ± 2.0 g
same,F4/80-positive area (inflammation area),[1]; [3],4.77 ± 1.02%
same,F4/80 and CD206-positive cells,[1]; [3],34.7 ± 6.3%
same,F4/80 and CDE 16/32-positive cells,[1]; [3],38.7 ± 7.6%
same,Liver hydroxyproline,[1]; [3],0.63 ± 0.05 ug/mg total protein
same,Liver triglyceride,[1]; [3],48.5 ± 16.1 mg/g liver
same,Liver weight,[1]; [3],1334 ± 99 mg
same,Liver-to-body weight ratio,[1]; [3],6.9 ± 1.0%
same,M1/M2 ratio,[1]; [3],112.3 ± 17.0%
same,NAFLD Activity Score (NAS),[1]; [3],4.0 ± 0.6
same,Oil red-positive area (fat deposition area),[1]; [3],6.51 ± 3.88%
same,Plasma ALT,[1]; [3],58 ± 12 U/L
same,Plasma MCP-1,[1]; [3],68 ± 16 pg/mL
same,TUNEL-positive cells,[1]; [3],43.3 ± 2.9%
same,Whole blood glucose,[1]; [3],585 ± 91 mg/dL
same,Sirius red-positive area (fibrosis area),[1]; [3],0.66 ± 0.16%
same,Modified Sirius red-positive rea,[1]; [3],0.29 ± 0.14%
same,"Hepatocyte ballooning score 1, number of mice","[1]; CVC-low 20 mg/kg/day, n=6",3
same,"Hepatocyte ballooning score 2, number of mice","[1]; CVC-low 20 mg/kg/day, n=6",3
same,"Lobular inflammation score 1, number of mice","[1]; CVC-low 20 mg/kg/day, n=6",3 (>4 foci/200x)
same,"Lobular inflammation score 2, number of mice","[1]; CVC-low 20 mg/kg/day, n=6",3 (>4 foci/200x)
same,"Steatosis score 1, number of mice","[1]; CVC-low 20 mg/kg/day, n=6",6
same,Increase in plasma monocyte chemotactic protein-1 levels,[1]; high dose 100 mg/kg/day,1.5 fold
same,Increase in plasma monocyte chemotactic protein-1 levels,[1]; low dose 20 mg/kg/day,1.1 fold
